Converted amounts (≈) assume the structure as drawn. The source made the active and inactive calls. The calls are words filed in the database; no cut-off is given here.
Columns and labels:
[1] = tested on: Staphylococcus epidermidis; experiment: Antibacterial activity against Staphylococcus epidermidis assessed as zone of inhibition after 24 to 48 hrs by well diffusion method; format: functional
NCI-H157 [2] = experiment: Cytotoxicity against human NCI-H157 cells at 0.1 uM after 48 hrs by sulforhodamine B assay; format: functional
Staphylococcus aureus [3] = experiment: Antibacterial activity against Staphylococcus aureus assessed as zone of inhibition after 24 to 48 hrs by well diffusion method; format: functional
BHK-21 [4] = experiment: Cytotoxicity against golden hamster BHK21 cells after 48 hrs by sulforhodamine B assay; format: cell-based, Mesocricetus auratus; conditions: bhk-21, 48 h
[5] = tested on: Staphylococcus epidermidis; experiment: Antibacterial activity against Staphylococcus epidermidis assessed as zone of inhibition by measuring activity index after 24 to 48 hrs by well diffusion method relative to ampicillin; format: functional, organism-based
NCI-H157 [6] = experiment: Cytotoxicity against human NCI-H157 cells after 48 hrs by sulforhodamine B assay; format: functional, cell-based
BHK-21 [7] = experiment: Cytotoxicity against golden hamster BHK21 cells at 0.1 uM after 48 hrs by sulforhodamine B assay; format: cell-based, Mesocricetus auratus; conditions: bhk-21, 48 h
Streptococcus pyogenes [8] = experiment: Antibacterial activity against Streptococcus pyogenes assessed as zone of inhibition by measuring activity index after 24 to 48 hrs by well diffusion method relative to tetracycline; format: functional, organism-based
Streptococcus pyogenes [9] = experiment: Antibacterial activity against Streptococcus pyogenes assessed as zone of inhibition by measuring activity index after 24 to 48 hrs by well diffusion method relative to amoxicillin; format: functional, organism-based
Staphylococcus aureus [10] = experiment: Antibacterial activity against Staphylococcus aureus assessed as zone of inhibition by measuring activity index after 24 to 48 hrs by well diffusion method relative to penicillin G; format: functional, organism-based
Serratia marcescens [11] = experiment: Antibacterial activity against Serratia marcescens assessed as zone of inhibition by measuring activity index after 24 to 48 hrs by well diffusion method relative to ampicillin; format: functional
Serratia marcescens [12] = experiment: Antibacterial activity against Serratia marcescens assessed as zone of inhibition by measuring activity index after 24 to 48 hrs by well diffusion method relative to amoxicillin; format: functional
Leishmania major [13] = experiment: Antileishmanial activity against Leishmania major promastigotes at 100 uM after 72 hrs by MTT assay relative to control; format: functional
Escherichia coli [14] = experiment: Antibacterial activity against Escherichia coli assessed as zone of inhibition after 24 to 48 hrs by well diffusion method; format: functional
Staphylococcus aureus [15] = experiment: Antibacterial activity against Staphylococcus aureus assessed as zone of inhibition by measuring activity index after 24 to 48 hrs by well diffusion method relative to ampicillin; format: functional, organism-based
BHK-21 [16] = experiment: Cytotoxicity against golden hamsterBHK21 cells at 10 uM after 48 hrs by sulforhodamine B assay; format: cell-based, Mesocricetus auratus; conditions: hamster, bhk-21, 48 h
Streptococcus pyogenes [17] = experiment: Antibacterial activity against Streptococcus pyogenes assessed as zone of inhibition by measuring activity index after 24 to 48 hrs by well diffusion method relative to penicillin G; format: functional, organism-based
NCI-H157 [18] = experiment: Cytotoxicity against human NCI-H157 cells at 1 uM after 48 hrs by sulforhodamine B assay; format: functional
Pseudomonas aeruginosa [19] = experiment: Antibacterial activity against Pseudomonas aeruginosa assessed as zone of inhibition after 24 to 48 hrs by well diffusion method; format: functional
Leishmania major [20] = experiment: Antileishmanial activity against Leishmania major promastigotes at 0.1 uM after 72 hrs by MTT assay relative to control; format: functional
Klebsiella pneumoniae [21] = experiment: Antibacterial activity against Klebsiella pneumoniae assessed as zone of inhibition after 24 to 48 hrs by well diffusion method; format: functional
NCI-H157 [22] = experiment: Cytotoxicity against human NCI-H157 cells at 100 uM after 48 hrs by sulforhodamine B assay; format: functional
Leishmania major [23] = experiment: Antileishmanial activity against Leishmania major promastigotes at 10 uM after 72 hrs by MTT assay relative to control; format: functional
Pseudomonas aeruginosa [24] = experiment: Antibacterial activity against Pseudomonas aeruginosa assessed as zone of inhibition by measuring activity index after 24 to 48 hrs by well diffusion method relative to ampicillin; format: functional, organism-based
Serratia marcescens [25] = experiment: Antibacterial activity against Serratia marcescens assessed as zone of inhibition after 24 to 48 hrs by well diffusion method; format: functional
Klebsiella pneumoniae [26] = experiment: Antibacterial activity against Klebsiella pneumoniae assessed as zone of inhibition by measuring activity index after 24 to 48 hrs by well diffusion method relative to penicillin G; format: functional, organism-based
Staphylococcus aureus [27] = experiment: Antibacterial activity against Staphylococcus aureus assessed as zone of inhibition by measuring activity index after 24 to 48 hrs by well diffusion method relative to amoxicillin; format: functional, organism-based
Escherichia coli [28] = experiment: Antibacterial activity against Escherichia coli assessed as zone of inhibition by measuring activity index after 24 to 48 hrs by well diffusion method relative to tetracycline; format: functional
[29] = tested on: Staphylococcus epidermidis; experiment: Antibacterial activity against Staphylococcus epidermidis assessed as zone of inhibition by measuring activity index after 24 to 48 hrs by well diffusion method relative to penicillin G; format: functional, organism-based
Streptococcus pyogenes [30] = experiment: Antibacterial activity against Streptococcus pyogenes assessed as zone of inhibition after 24 to 48 hrs by well diffusion method; format: functional
Leishmania major [31] = experiment: Antileishmanial activity against Leishmania major promastigotes at 1 uM after 72 hrs by MTT assay relative to control; format: functional
Staphylococcus aureus [32] = experiment: Antibacterial activity against Staphylococcus aureus assessed as zone of inhibition by measuring activity index after 24 to 48 hrs by well diffusion method relative to tetracycline; format: functional, organism-based
BHK-21 [33] = experiment: Cytotoxicity against golden hamster BHK21 cells at 100 uM after 48 hrs by sulforhodamine B assay; format: cell-based, Mesocricetus auratus; conditions: bhk-21, 48 h
NCI-H157 [34] = experiment: Cytotoxicity against human NCI-H157 cells at 10 uM after 48 hrs by sulforhodamine B assay; format: functional
Serratia marcescens [35] = experiment: Antibacterial activity against Serratia marcescens assessed as zone of inhibition by measuring activity index after 24 to 48 hrs by well diffusion method relative to penicillin G; format: functional
BHK-21 [36] = experiment: Cytotoxicity against golden hamster BHK21 cells at 1 uM after 48 hrs by sulforhodamine B assay; format: cell-based, Mesocricetus auratus; conditions: bhk-21, 48 h
Streptococcus pyogenes [37] = experiment: Antibacterial activity against Streptococcus pyogenes assessed as zone of inhibition by measuring activity index after 24 to 48 hrs by well diffusion method relative to ampicillin; format: functional, organism-based
[38] = tested on: Agrobacterium tumefaciens; experiment: Antitumor activity against Agrobacterium tumefaciens-induced tumor after 21 days by potato disc bioassay technique; format: functional
HepG2 = experiment: Cytotoxicity against human HepG2 cells by MTT assay; format: functional, cell-based

For `COc1ccc(NC(=O)c2ccccc2C(=O)[O-])c([N+](=O)[O-])c1.[Na+]`, which “inhibition zone (IZ)” value [1] is on record?
Its value is “inactive”.

What about the Activity (NCI-H157 [2]) of the same molecule?
Its Activity is 25.1%.

What about the “inhibition zone (IZ)” value (Staphylococcus aureus [3]) of the same molecule?
Its value is “inactive”.

What about the Activity (BHK-21 [4]) of the same molecule?
Its Activity is “Dose-dependent effect”.

What about the Activity_index [5] of the same molecule?
Its Activity_index is “inactive”.

And the Activity (NCI-H157 [6])?
Its Activity is “Dose-dependent effect”.

What about the Activity (BHK-21 [7]) of the same molecule?
Its Activity is 40.5%.

What about the Activity_index (Streptococcus pyogenes [8]) of the same molecule?
Its Activity_index is “inactive”.

What about the Activity_index (Streptococcus pyogenes [9]) of the same molecule?
The Activity_index was “inactive”.

And the Activity_index (Staphylococcus aureus [10])?
The Activity_index was “inactive”.

And the Activity_index (Serratia marcescens [11])?
Its Activity_index is 0.92.

And the Activity_index (Serratia marcescens [12])?
The Activity_index was 1.22.

What about the Activity (Leishmania major [13]) of the same molecule?
Its Activity is 49.5%.

What about the “inhibition zone (IZ)” value (Escherichia coli [14]) of the same molecule?
The value was 5 mm.

What about the Activity_index (Staphylococcus aureus [15]) of the same molecule?
Its Activity_index is “inactive”.

And the Activity (BHK-21 [16])?
Its Activity is 48.9%.

And the Activity_index (Streptococcus pyogenes [17])?
The Activity_index was “inactive”.

And the Activity (NCI-H157 [18])?
Its Activity is 35.2%.

And the “inhibition zone (IZ)” value (Pseudomonas aeruginosa [19])?
The value was “inactive”.

And the Activity (Leishmania major [20])?
The Activity was 38.4%.

What about the “inhibition zone (IZ)” value (Klebsiella pneumoniae [21]) of the same molecule?
Its value is “inactive”.

And the Activity (NCI-H157 [22])?
Its Activity is 52.2%.

And the Activity (Leishmania major [23])?
The Activity was 46.3%.

What about the Activity_index (Pseudomonas aeruginosa [24]) of the same molecule?
The Activity_index was “inactive”.

What about the “inhibition zone (IZ)” value (Serratia marcescens [25]) of the same molecule?
Its value is 7.33 mm.

And the Activity_index (Klebsiella pneumoniae [26])?
Its Activity_index is “inactive”.

And the Activity_index (Staphylococcus aureus [27])?
Its Activity_index is “inactive”.

And the Activity_index (Escherichia coli [28])?
Its Activity_index is 2.5.

What about the Activity_index [29] of the same molecule?
Its Activity_index is “inactive”.

What about the “inhibition zone (IZ)” value (Streptococcus pyogenes [30]) of the same molecule?
The value was “inactive”.

What about the Activity (Leishmania major [31]) of the same molecule?
Its Activity is 40.2%.

What about the Activity_index (Staphylococcus aureus [32]) of the same molecule?
The Activity_index was “inactive”.

And the Activity (BHK-21 [33])?
Its Activity is 53.5%.

What about the Activity (NCI-H157 [34]) of the same molecule?
The Activity was 50.3%.

What about the Activity_index (Serratia marcescens [35]) of the same molecule?
The Activity_index was 0.92.

What about the Activity (BHK-21 [36]) of the same molecule?
The Activity was 44.2%.

And the Activity_index (Streptococcus pyogenes [37])?
Its Activity_index is “inactive”.

Which results are given for `CC[C@]1(O)C[C@H]2CN(CCc3c([nH]c4ccccc34)[C@@](C(=O)OC)(c3cc4c(cc3OC)N(C=O)[C@H]3[C@@](O)(C(=O)OC)[C@H](OC(C)=O)[C@]5(CC)C=CCN6CC[C@]43[C@@H]65)C2)C1` [VINCRISTINE]?
Activity (NCI-H157 [2]): 69.8%; Activity (BHK-21 [4]): Dose-dependent effect; Activity (NCI-H157 [6]): Dose-dependent effect; Activity (BHK-21 [7]): 69.8%; Activity (BHK-21 [16]): 72.6%; Activity (NCI-H157 [18]): 70.9%; Activity (NCI-H157 [22]): 74.5%; Activity [38]: 100%; IC50 (HepG2): 0.042 µg/mL (≈ 0.0509 µM); Activity (BHK-21 [33]): 74.5%; Activity (NCI-H157 [34]): 72.6%; Activity (BHK-21 [36]): 70.9%
